This assay deals with T1, large-conductance Ca2+-activated K+ (BKCa) channel (Rattus norvegicus, UniProt Q62976).
T1 construct: gene Kcnma1; native channel in inside-out membrane patches of GH3 cells
Nature of the assay: single-channel patch clamp, inside-out; open probability […] to […] at […], no significant change at […]. The format is cell-based.

T1 sequence (Q62976 whole entry): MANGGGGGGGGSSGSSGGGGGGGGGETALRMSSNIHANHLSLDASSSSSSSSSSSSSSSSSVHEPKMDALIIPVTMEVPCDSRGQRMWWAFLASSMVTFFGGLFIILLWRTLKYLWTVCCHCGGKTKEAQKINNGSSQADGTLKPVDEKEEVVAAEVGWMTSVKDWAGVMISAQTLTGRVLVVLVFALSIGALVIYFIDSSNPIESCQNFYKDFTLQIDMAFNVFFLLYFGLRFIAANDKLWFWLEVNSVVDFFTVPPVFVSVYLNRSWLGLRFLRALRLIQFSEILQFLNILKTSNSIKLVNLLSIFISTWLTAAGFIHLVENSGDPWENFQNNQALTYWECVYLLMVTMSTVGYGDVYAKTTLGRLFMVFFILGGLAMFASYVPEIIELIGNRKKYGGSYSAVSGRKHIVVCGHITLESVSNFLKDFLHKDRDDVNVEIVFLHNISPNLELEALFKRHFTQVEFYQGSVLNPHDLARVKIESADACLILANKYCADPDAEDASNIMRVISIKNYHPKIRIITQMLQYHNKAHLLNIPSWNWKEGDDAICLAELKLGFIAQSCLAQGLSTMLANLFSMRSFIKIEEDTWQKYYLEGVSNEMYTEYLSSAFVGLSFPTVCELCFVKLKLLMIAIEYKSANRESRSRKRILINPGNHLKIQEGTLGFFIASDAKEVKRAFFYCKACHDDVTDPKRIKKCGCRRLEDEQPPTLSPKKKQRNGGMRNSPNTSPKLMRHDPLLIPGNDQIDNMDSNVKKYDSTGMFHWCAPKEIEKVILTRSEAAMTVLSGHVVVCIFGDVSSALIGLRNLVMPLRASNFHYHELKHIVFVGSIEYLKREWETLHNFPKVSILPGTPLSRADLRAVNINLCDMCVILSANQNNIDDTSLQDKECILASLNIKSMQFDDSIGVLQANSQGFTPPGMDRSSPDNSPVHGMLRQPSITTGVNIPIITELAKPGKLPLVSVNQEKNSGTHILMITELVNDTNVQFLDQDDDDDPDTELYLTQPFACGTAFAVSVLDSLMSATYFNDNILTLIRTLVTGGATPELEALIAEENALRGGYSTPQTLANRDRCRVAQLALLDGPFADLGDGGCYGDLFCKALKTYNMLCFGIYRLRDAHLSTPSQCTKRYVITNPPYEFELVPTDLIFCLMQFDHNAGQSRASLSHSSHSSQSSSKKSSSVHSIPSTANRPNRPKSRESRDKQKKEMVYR

Take `Cc1ccccc1C(=O)Nc1ccc(C(=O)N2CCCC(O)c3cc(Cl)ccc32)c(C)c1` (stereo not shown) [TLV, N-[4-[(7-chloro-2,3,4,5-tetrahydro-5-hydroxy-1H-1-benzazepin-1-yl)carbonyl]-3-methylphenyl]-2-methylbenzamide]: the “single-channel patch clamp, inside-out; open probability 0.0191 to 0.0143 at 30” value amounted to 30 µM.

These data come from publication PMC6401633, “Evidence for Effective Multiple K^+-Current Inhibitions by Tolvaptan, a Non-peptide Antagonist of Vasopressin V2 Receptor” (Frontiers in Pharmacology, 2019).
